The assay concerns the target T1, ACAD11 (Homo sapiens, UniProt Q709F0).
T1 construct: endogenous in cells
T1 sequence (Q709F0 1-780): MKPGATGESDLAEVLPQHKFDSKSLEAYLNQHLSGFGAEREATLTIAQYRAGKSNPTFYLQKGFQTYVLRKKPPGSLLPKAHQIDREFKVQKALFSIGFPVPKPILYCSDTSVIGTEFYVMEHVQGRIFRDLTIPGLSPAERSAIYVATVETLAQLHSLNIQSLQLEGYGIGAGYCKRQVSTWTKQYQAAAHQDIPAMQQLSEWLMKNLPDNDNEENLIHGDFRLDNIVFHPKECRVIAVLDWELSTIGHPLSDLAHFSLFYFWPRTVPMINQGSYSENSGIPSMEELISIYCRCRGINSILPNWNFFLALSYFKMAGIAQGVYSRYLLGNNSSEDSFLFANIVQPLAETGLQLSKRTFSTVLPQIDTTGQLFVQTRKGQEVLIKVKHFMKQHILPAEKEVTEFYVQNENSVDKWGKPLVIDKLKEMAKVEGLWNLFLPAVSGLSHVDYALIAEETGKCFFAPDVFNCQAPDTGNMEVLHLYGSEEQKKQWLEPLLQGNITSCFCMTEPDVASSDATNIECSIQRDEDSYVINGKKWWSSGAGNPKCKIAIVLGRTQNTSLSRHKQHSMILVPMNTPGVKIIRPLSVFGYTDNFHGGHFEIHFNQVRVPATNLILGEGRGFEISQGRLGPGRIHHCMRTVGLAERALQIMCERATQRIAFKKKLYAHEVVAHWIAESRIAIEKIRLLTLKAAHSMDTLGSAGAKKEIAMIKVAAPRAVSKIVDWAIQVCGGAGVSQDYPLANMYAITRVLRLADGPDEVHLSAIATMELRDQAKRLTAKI
Briefly: Kinobeads two-dose competition binding: ACAD11. As to conditions: sheet CATDS matrix 2; Gene Name ACAD11.

Molecules are shown by their SMILES.

For `Nc1ncnc2[nH]c(-c3ccccc3)nc12` [AH5015_KCGS], the CATDS was 0.

On to `CCN1CCN(Cc2ccc(Nc3ncc(F)c(-c4cc(F)c5nc(C)n(C(C)C)c5c4)n3)nc2)CC1` [Abemaciclib], for which the CATDS is reported as 0.

`CN(C)C/C=C/C(=O)Nc1cc2c(Nc3ccc(F)c(Cl)c3)ncnc2cc1O[C@H]1CCOC1` [Afatinib]: the CATDS was 0.

As for `CCc1cc2c(cc1N1CCC(N3CCOCC3)CC1)C(C)(C)c1[nH]c3cc(C#N)ccc3c1C2=O` [Alectinib], the CATDS is listed as 0.

Turning to `N#CC1(c2ccc(NC(=O)c3cccnc3NCc3ccncc3)cc2)CCCC1` [Apatinib], the CATDS is listed as 0.

In turn, `C#Cc1cccc(Nc2ncnc3cc(OC)c(OC4CCN(C)CC4)cc23)c1` [BI00007366] returned a CATDS of 0.

As to `CC(C)N1CC(=O)N(C)c2cnc(Nc3cccc(S(=O)(=O)CCN4CCOCC4)c3)nc21` [BI00009348], the CATDS is recorded as 0.

Values taken from PMC11062922 (Nature Chemical Biology, 2023).
